What is called IC50 is the point on the concentration scale where inhibition reaches its midpoint. A high value points to weaker potency.

This assay deals with T1, purified human 15-lipoxygenase (Homo sapiens, UniProt P16050).
T1 sequence (P16050 1-662): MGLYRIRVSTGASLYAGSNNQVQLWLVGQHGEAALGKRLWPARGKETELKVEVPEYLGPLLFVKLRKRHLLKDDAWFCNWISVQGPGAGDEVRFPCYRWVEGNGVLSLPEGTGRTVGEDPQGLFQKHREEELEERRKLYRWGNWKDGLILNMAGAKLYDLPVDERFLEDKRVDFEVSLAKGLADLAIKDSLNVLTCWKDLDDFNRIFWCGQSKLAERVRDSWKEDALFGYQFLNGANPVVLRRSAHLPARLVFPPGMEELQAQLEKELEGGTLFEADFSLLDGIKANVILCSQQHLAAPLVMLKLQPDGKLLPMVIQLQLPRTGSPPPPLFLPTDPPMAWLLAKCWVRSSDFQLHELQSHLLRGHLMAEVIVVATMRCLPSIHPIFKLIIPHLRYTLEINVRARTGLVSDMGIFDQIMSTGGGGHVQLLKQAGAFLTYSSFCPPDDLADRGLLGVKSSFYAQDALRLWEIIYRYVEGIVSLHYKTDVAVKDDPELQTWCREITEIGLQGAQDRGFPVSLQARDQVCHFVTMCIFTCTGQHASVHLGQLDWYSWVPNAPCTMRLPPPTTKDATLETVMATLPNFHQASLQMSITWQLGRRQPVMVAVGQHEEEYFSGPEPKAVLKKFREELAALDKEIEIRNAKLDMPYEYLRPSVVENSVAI
The assay is described as follows: 15-lipoxygenase inhibition assay (arachidonic acid oxidation, HPLC readout). In kind it is biochemical. To be noted: arachidonic acid substrate, room temperature. On the procedure: The assay employed takes advantage of the ability of lipoxygenases to oxidize polyunsaturated fatty acids, containing a 1,4-cis-pentadiene configuration, to their corresponding hydroperoxy or hydroxyl derivatives. In this particular assay, the lipoxygenase was a purified human 15-lipoxygenase and the fatty acid was arachidonic acid. The assay is performed at room temperature (20-22° C.) and the following are added to each well in a 96-well microtiter plate:
a) 35 μL phosphate buffered saline (PBS) (pH 7.4); b) inhibitor (i.e. compound) or vehicle (0.5 μl DMSO); c) 10 μL of a 10× concentrated solution of 15-lipoxygenase in PBS. The plates are incubated for 5 minutes at room temperature; d) 5 μl of 0.125 mM arachidonic acid in PBS. The plate is then incubated for 10 minutes at room temperature; e) the enzymatic reaction is terminated by the addition of 100 μl methanol; and
f) the amount of 15-hydroperoxy-eicosatetraenoic acid or 15-hydroxy-eicosatetraenoic acid is measured by reverse phase HPLC.
For the compound `O=C(Nc1ccc(Br)cc1OC(F)(F)F)c1cc[nH]n1` [Example 15, N-(4-Bromo-2-trifluoromethoxyphenyl)pyrazole-3-carboxamide], the IC50 came out at 140 nM. As for `Cc1ccc(NC(=O)c2cc[nH]n2)c(C)c1` [Example 14, N-(2,4-Dimethylphenyl)pyrazole-3-carboxamide], the figure is 840 nM; as for `Cc1cc(Cl)ccc1NC(=O)c1cc[nH]n1` [Example 9, N-(4-Chloro-2-methylphenyl)pyrazole-3-carboxamide], 750 nM. As for `O=C(Nc1ccc(F)c(F)c1F)c1cc[nH]n1` [Example 7, N-(2,3,4-Trifluorophenyl)pyrazole-3-carboxamide], the figure is 1800 nM. On to `O=C(Nc1ccc(OC(F)(F)F)cc1Br)c1cc[nH]n1` [Example 2, N-(2-Bromo-4-trifluoromethoxyphenyl)pyrazole-3-carboxamide], for which half-maximal inhibition (IC50) was put at 160 nM.

`O=C(Nc1cc(Cl)ccc1Cl)c1cc[nH]n1` [Example 13, N-(2,5-Dichlorophenyl)pyrazole-3-carboxamide] came in with an IC50 of 1100 nM.

The values are drawn from patent US20090088463A1, “Pyrazoles Useful in the Treatment of Inflammation” (priority 2005, published 2009).
